Assay results published in PMC12076188 (Cancer Research Communications, 2025).
“Also recorded” adds a separate entry of the source. Read-outs that look alike come from different tables or passages of the source.

Columns and labels:
[1] = molecular target: Norepinephrine Transporter NET (Homo sapiens, UniProt P23975); assay: 41-target safety off-target activity panel
Phosphodiesterase PDE3A = Phosphodiesterase PDE3A (Homo sapiens, UniProt Q14432); assay: 41-target safety off-target activity panel
Acetylcholine M2 = Acetylcholine M2 (Homo sapiens, UniProt P08172); assay: 41-target safety off-target activity panel
Acetylcholine M2, sequence (P08172 whole entry): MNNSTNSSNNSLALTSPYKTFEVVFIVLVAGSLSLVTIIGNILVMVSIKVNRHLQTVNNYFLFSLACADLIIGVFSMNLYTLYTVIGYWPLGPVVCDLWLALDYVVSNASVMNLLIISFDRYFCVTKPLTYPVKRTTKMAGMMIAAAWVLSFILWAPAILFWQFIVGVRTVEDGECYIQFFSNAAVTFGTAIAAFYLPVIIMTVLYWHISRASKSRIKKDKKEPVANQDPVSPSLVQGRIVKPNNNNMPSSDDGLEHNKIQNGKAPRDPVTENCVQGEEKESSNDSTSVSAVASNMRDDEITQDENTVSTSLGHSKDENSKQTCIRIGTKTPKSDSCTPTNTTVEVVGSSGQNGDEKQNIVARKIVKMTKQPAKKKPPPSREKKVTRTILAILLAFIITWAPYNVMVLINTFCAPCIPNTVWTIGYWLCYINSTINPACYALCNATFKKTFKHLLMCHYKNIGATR

Central Nervous System = assay: In vivo safety pharmacology, GLP; design: species or system Sprague Dawley Rat; settings: conscious rats, single oral dose 100, 300 and 1000 mg/kg
Excerpt: (§1) Supplementary Table S11. In vivo safety pharmacology of glecirasib.
(§2) Organ Species/Strain Gender/No. per Group Noteworthy Findings GLP Compliance
(§3) System Beagle Dog 3/gender/group conscious and unrestrained Beagle dogs following a single oral dose of Yes

Respiratory system = assay: In vivo safety pharmacology, GLP; design: species or system Sprague Dawley Rat; settings: conscious rats, single oral dose 100, 300 and 1000 mg/kg
Excerpt: as §1, §2, §3

Cyclooxygenase COX2 = Cyclooxygenase COX2 (Homo sapiens, UniProt P35354); assay: 41-target safety off-target activity panel
GDP-bound HRAS WT = molecular target: T1, GDP-bound HRAS WT (Homo sapiens, UniProt P01112); assay: SOS1-mediated guanine nucleotide exchange assay (TR-FRET); format: biochemical
T1 construct: His-tagged HRAS WT (aa 1–166); made in house; host or cells: Escherichia coli
T1 sequence (P01112 1-166): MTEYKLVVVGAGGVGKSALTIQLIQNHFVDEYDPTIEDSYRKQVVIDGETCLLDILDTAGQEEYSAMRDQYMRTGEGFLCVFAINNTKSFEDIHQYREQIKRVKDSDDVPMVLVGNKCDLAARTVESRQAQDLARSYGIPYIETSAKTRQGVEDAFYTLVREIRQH

hERG potassium channel = hERG potassium channel (Homo sapiens, UniProt Q12809); assay: 41-target safety off-target activity panel
hERG potassium channel, sequence (Q12809 whole entry): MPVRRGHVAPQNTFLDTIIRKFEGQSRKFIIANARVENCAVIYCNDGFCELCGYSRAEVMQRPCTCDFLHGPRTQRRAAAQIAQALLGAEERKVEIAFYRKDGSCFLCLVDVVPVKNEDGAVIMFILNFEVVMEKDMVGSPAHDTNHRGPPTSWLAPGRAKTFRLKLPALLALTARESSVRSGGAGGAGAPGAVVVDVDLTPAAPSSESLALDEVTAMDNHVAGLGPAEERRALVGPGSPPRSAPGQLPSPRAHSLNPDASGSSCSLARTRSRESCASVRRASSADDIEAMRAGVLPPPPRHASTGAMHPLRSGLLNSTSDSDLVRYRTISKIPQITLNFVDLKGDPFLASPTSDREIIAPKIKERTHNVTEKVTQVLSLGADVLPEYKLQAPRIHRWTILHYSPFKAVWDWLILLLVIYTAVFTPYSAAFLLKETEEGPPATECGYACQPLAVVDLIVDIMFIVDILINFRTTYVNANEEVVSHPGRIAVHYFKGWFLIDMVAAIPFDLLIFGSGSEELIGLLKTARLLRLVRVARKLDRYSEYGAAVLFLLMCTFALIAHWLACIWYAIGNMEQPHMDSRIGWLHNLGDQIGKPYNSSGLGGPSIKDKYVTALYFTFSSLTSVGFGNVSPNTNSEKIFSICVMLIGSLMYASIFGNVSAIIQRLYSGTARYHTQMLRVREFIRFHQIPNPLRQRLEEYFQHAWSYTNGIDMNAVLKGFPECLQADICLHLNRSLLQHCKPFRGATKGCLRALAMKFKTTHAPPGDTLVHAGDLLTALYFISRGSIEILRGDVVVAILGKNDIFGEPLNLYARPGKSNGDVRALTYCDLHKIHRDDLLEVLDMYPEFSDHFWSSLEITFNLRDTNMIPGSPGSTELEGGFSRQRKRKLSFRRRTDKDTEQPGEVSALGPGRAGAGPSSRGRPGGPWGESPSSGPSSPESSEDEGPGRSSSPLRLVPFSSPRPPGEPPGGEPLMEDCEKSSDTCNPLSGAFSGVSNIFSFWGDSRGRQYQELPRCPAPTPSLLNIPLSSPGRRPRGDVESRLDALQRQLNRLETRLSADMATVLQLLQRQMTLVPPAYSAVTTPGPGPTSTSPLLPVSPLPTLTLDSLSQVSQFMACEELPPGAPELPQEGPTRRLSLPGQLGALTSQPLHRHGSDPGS

[2] = molecular target: 5-Hydroxytryptamine 5HT2A (Homo sapiens, UniProt P28223); assay: 41-target safety off-target activity panel
5-Hydroxytryptamine 5HT2A, sequence (P28223 whole entry): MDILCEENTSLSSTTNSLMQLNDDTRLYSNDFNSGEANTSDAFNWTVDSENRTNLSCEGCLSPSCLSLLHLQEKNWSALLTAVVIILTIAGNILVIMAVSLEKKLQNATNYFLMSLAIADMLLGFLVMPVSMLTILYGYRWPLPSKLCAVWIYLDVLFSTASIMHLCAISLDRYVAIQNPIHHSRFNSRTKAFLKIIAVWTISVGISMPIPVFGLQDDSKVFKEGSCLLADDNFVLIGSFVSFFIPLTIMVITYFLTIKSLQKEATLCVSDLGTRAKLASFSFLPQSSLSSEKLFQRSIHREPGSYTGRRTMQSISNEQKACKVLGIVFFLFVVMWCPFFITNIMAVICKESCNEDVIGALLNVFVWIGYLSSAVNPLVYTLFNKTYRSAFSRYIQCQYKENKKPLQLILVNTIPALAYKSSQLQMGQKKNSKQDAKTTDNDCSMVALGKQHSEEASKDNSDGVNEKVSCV

Sodium channel Nav1.5 = Sodium channel Nav1.5 (Homo sapiens, UniProt Q14524); assay: 41-target safety off-target activity panel
[3] = test system: p-ERK1/2 (Thr202/Tyr204) in SW1573 cells (KRAS p.G12C); assay: cells; format: cell-based; settings: Homo sapiens, SW1573, 2 h, read-out: p-ERK IC50 (nM)
Description: (§4) For phospho-ERK (p-ERK) assays, cells were seeded in 96-well plates with appropriate density (refer to Supplementary Table S3) and incubated overnight, followed by treatment with a series of concentrations of compounds in the assay medium (containing 0.1% FBS) for 2 hours. […] Then, p-AKT1/2/3 (Ser473) was detected using the p-AKT1/2/3 (Ser473) cellular kit (Cisbio/Revvity) according to the manufacturer’s instructions. […] The IC50 values were calculated using GraphPad Prism (RRID: SCR_002798) by fitting a four-parameter dose–response curve.

[4] = test system: all other kinases of the 330-kinase panel; assay: 330-kinase panel; settings: glecirasib 10 μmol/L, Km concentration of ATP
[5] = molecular target: 5-Hydroxytryptamine 5HT1B (Homo sapiens, UniProt P28222); assay: 41-target safety off-target activity panel
5-Hydroxytryptamine 5HT1B, sequence (P28222 whole entry): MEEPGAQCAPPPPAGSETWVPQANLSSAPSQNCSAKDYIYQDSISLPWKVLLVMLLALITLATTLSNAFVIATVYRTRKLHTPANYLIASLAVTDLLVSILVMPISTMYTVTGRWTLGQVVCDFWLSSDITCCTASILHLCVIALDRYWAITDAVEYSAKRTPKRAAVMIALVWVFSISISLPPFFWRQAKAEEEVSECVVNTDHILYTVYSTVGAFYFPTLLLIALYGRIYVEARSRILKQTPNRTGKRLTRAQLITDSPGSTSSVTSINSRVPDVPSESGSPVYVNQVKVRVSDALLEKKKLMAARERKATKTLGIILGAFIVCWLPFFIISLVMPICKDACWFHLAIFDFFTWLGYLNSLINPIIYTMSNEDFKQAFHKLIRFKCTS

[6] = molecular target: Serotonin Transporter SET (Homo sapiens, UniProt P31645); assay: 41-target safety off-target activity panel
Serotonin Transporter SET, sequence (P31645 whole entry): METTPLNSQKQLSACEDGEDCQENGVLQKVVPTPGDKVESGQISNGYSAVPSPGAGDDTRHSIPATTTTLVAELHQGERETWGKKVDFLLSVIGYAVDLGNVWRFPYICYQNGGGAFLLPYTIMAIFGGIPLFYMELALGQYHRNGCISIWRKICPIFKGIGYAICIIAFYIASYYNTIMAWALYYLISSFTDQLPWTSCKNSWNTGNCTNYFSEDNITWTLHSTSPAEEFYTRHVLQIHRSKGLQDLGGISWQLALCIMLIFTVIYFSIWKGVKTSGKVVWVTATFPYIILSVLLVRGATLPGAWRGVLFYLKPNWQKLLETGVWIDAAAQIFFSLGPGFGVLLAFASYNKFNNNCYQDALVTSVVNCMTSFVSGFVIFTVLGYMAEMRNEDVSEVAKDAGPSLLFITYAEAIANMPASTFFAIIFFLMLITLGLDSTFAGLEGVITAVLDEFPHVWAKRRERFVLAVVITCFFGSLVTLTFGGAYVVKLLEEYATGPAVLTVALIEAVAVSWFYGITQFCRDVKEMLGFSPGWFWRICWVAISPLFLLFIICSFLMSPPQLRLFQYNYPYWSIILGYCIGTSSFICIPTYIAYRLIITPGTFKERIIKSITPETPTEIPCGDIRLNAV

[7] = test system: p-ERK1/2 (Thr202/Tyr204) in MIA PaCa-2 cells (KRAS p.G12C); assay: cells; format: cell-based; settings: Homo sapiens, MIA PaCa-2, 2 h, read-out: p-ERK IC50 (nM)
Description: as §4

Dopamine D2S = Dopamine D2S (Homo sapiens, UniProt P14416); assay: 41-target safety off-target activity panel
Dopamine D2S, sequence (P14416 1-414 isoform P14416-2): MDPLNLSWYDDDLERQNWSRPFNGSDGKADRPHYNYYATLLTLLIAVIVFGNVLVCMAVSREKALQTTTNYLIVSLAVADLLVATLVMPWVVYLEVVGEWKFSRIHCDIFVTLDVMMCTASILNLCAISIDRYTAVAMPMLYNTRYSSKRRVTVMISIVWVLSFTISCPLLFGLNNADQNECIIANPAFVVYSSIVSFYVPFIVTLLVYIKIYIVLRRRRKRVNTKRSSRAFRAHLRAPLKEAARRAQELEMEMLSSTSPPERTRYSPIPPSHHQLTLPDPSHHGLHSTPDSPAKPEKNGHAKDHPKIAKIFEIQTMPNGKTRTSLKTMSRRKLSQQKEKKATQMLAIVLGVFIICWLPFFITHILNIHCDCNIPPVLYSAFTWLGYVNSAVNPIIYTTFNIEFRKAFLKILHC

[8] = test system: p-ERK1/2 (Thr202/Tyr204) in NCI-H1373 cells (KRAS p.G12C); assay: cells; format: cell-based; settings: Homo sapiens, NCI-H1373, 2 h, read-out: p-ERK IC50 (nM)
Description: as §4

Dopamine D1 = Dopamine D1 (Homo sapiens, UniProt P21728); assay: 41-target safety off-target activity panel
Dopamine D1, sequence (P21728 whole entry): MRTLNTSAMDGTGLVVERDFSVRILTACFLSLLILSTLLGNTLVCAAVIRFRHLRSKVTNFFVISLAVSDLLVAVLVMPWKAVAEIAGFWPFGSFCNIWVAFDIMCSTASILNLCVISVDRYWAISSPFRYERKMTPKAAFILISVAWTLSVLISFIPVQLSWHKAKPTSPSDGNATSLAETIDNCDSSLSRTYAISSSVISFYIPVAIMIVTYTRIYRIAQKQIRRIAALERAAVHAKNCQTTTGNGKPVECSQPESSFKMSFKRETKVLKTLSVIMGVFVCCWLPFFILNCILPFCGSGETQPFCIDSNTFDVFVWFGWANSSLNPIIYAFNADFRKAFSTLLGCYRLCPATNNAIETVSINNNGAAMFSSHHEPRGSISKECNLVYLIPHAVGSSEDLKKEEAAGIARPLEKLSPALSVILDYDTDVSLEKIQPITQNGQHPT

Dopamine Transporter DAT = Dopamine Transporter DAT (Homo sapiens, UniProt Q01959); assay: 41-target safety off-target activity panel
TK LCK = TK LCK (Homo sapiens, UniProt P06239); assay: 41-target safety off-target activity panel
Cyclooxygenase COX1 = Cyclooxygenase COX1 (Homo sapiens, UniProt P23219); assay: 41-target safety off-target activity panel
[9] = test system: S. typhimurium TA97a, TA98, TA100, TA102 and TA1535; assay: In vitro Ames; format: cell-based; settings: 50, 150, 500, 1500 and 5000 μg/plate, presence or absence of S9 mix; GLP
Description: Study Species/Strain Gender/No. per Noteworthy Findings GLP Compliance
strains of S. typhimurium: 150, 500, 1500 and 5000 μg/plate in the presence or absence of S9 mix.
and TA1535 The result of this Ames test was concluded to be negative. […]

Cholinesterase AChE = Cholinesterase AChE (Homo sapiens, UniProt P22303); assay: 41-target safety off-target activity panel
Cholinesterase AChE, sequence (P22303 32-614): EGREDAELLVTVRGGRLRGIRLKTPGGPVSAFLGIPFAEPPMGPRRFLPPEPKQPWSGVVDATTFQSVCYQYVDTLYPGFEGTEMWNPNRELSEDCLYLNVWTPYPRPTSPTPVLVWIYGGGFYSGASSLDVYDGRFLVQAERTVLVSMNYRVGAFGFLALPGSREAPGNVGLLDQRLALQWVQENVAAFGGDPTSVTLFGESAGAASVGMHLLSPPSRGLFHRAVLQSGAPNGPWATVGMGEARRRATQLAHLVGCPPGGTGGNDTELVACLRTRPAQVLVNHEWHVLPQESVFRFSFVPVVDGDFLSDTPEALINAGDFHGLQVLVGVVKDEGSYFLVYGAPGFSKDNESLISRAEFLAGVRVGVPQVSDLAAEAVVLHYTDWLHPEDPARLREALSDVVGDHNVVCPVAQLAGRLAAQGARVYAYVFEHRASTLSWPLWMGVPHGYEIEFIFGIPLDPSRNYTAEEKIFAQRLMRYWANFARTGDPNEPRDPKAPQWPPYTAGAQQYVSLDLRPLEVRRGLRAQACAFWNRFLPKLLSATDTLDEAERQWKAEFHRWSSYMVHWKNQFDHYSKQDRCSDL

[10] = test system: cysteine-containing peptides in NCI-H358 cells; assay: Cysteine proteome analysis; format: cell-based, human; settings: NCI-H358, 1 μmol/L, 4 hours, n = 5
Description: The cysteine proteome analysis was performed by IQ Proteomics. Briefly, collected cell pellets were lysed and treated to label remaining unreacted cysteines. Labeled peptides were enriched by streptavidin agarose and analyzed by nano LC/MS. The adjusted P values were calculated according to the Benjamini–Hochberg method using the JMP statistical analysis software. Log2 fold changes between the glecirasib-treated group and DMSO controls were taken as the abscissa (x-axis), and statistical significance (P value) of the difference between the glecirasib-treated group and DMSO controls was taken as the ordinate (y-axis).

[11] = AUC in plasma and brain following a single oral dose; format: in vivo, Rat (Sprague-Dawley); settings: 300 mg/kg; for Kp: brain; for AUC(0-t): plasma, read-out: AUC0-24h Plasma
[12] = Rat (Sprague-Dawley), Female, single dose
[13] = Rat (Sprague-Dawley), Male, single dose

What does the source list for C=CC(=O)N1CCN(c2c(C#N)c(=O)n(-c3c(C)ccnc3C(C)C)c3nc(-c4c(N)c(F)c(F)c(F)c4F)c(Cl)cc23)CC1 [Glecirasib]?
inhibition at 10 µM [1]: -35.7%; inhibition at 10 µM (Phosphodiesterase PDE3A): 12.5%; inhibition at 10 µM (Acetylcholine M2): 22.5%; Mean % activation (Acetylcholine M2; Glecirasib 10 μM): 3.59%; Noteworthy Findings, central nervous system (Central Nervous System): No effects on neurobehavioral performances; also recorded: no adverse effect; Noteworthy Findings, respiratory (Respiratory system): No remarkable effect on respiratory functions; also recorded: no adverse effect; inhibition at 10 µM (Cyclooxygenase COX2): 14.7%; IC50 (GDP-bound HRAS WT): > 10000 nM; inhibition at 10 µM (hERG potassium channel): 18.2%; inhibition at 10 µM [2]: 13.6%; Mean % activation ([2]; Glecirasib 10 μM): -0.04%; inhibition at 10 µM (Sodium channel Nav1.5): 1.01%; IC50 [3]: 14 nM; inhibition rate [4]: less than 50%; inhibition at 10 µM [5]: -1.28%; Mean % activation ([5]; Glecirasib 10 μM): 7.33%; inhibition at 10 µM [6]: 4.04%; IC50 [7]: 21 nM; inhibition at 10 µM (Dopamine D2S): 0.22%; Mean % activation (Dopamine D2S; Glecirasib 10 μM): -0.38%; IC50 [8]: 6.61 nM; inhibition at 10 µM (Dopamine D1): 4.56%; Mean % activation (Dopamine D1; Glecirasib 10 μM): 1.51%; inhibition at 10 µM (Dopamine Transporter DAT): 6.98%; inhibition at 10 µM (TK LCK): 0.93%; inhibition at 10 µM (Cyclooxygenase COX1): 32.3%; Ames test result [9]: negative; inhibition at 10 µM (Cholinesterase AChE): -8.33%; covalently bound targets among 9,378 unique cysteine-containing peptides [10]: the Cys12 peptide in KRAS G12C is the only covalently bound target; AUC0-24h Brain (h·ng/g) [11, 12]: 1,875 h·ng/g; AUC0-24h Brain (h·ng/g) [11, 13]: 1,677 h·ng/g; Kp ([11]; Sprague-Dawley, rat, rats, read-out: brain distribution, % of AUC in plasma): 0.1; Kp ([11]; Rat (Sprague-Dawley), Female, single dose, read-out: Brain/Plasma AUC0-24h ratio (%)): 0.102; Kp ([11]; Rat (Sprague-Dawley), Male, single dose, read-out: Brain/Plasma AUC0-24h ratio (%)): 0.0904; AUC(0-t) [11, 12]: 18400 ng·h/mL; AUC(0-t) [11, 13]: 18600 ng·h/mL
